According to US20030149075A1, “Zoniporide mesylate pharmaceutical compositions and processes for improving solubility of zoniporide” (Pfizer Inc., priority 2002, published 2003):
Counter-ions that a name gives are not always drawn.

Assays:
[1] = Aqueous solubility of Zoniporide / Zoniporide mesylate, including pH adjustment with acids; format: physicochemical
Description: The most commercially feasible and the most pharmaceutically acceptable means, in this particular instance, for increasing solubility of Zoniporide was via pH adjustment.
Further additions of methanesulfonic acid further improved solubility with decreasing pH.
The phrase “increase (or increasing) the solubility” means increasing the solubility of Zoniporide or Zoniporide mesylate to a value greater than the solubility of Zoniporide mesylate in water (i.e. greater than about 18 mgA/mL).
(§1) The use of methanesulfonic acid to lower the pH of pharmaceutical formulations is non-traditional in the pharmaceutical field. […] Typically, the pH of pharmaceutical intravenous formulations is not lower than about pH of 3, because of injection-site toleration problems that are inherent in low pH formulations. […] Reducing the pH below about 2, however, can further increase the concentration of Zoniporide, but may cause injection site toleration issues.

[2] = Injection-site toleration of low-pH Zoniporide formulations; format: in vivo; settings: formulations adjusted with methanesulfonic acid to as low as about pH 2
Description: as §1

solubility of Zoniporide mesylate in water ([1]; in water, mgA/mL = mg/mL of active compound Zoniporide) | change in solubility on pH adjustment with methanesulfonic acid ([1]; addition of methanesulfonic acid, further additions further improved solubility with decreasing pH) | change in solubility on pH adjustment with typical pH adjusters ([1]; hydrochloric acid, sulfuric acid, phosphoric acid, aqueous solution, pH range acceptable for infusion) | SMILES | injection-site toleration [2]
about 18 mgA/mL |  |  | N=C(N)NC(=O)c1cnn(-c2cccc3ncccc23)c1C1CC1 [Zoniporide mesylate] | 
 | increase in solubility | no significant increase in solubility | N=C(N)NC(=O)c1cnn(-c2cccc3ncccc23)c1C1CC1 [Zoniporide, N-(5-cyclopropyl-1-quinolin-5-yl-1H-pyrazole-4-carbonyl)-guanidine] | without the expected injection-site toleration issues
